Laboratory results reported in patent publication US10597388B2, “Pyridazinone herbicides” (FMC CORPORATION, priority 2014, dated 2020).

Columns and labels:
Format in all cases: in vivo
[1] = system: ragweed (common ragweed, Ambrosia elatior); experiment: Test A greenhouse herbicide test, pre- and postemergence
How it was run: (§1)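 Seeds sown in loam–sand blend got a preemergence directed soil spray of compound in non-phytotoxic solvent with surfactant. Postemergence treatment was given at 2–10 cm, one- to two-leaf stage. After ~10 d in greenhouse, injury was rated visually vs untreated controls, 0 (no effect) to 100 (complete control).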

[2] = system: wheat (Triticum aestivum); experiment: as above; conditions: Postemergence
How it was run: as §1

[3] = system: barnyardgrass (Echinochloa crus-galli); experiment: as above
How it was run: as §1

[4] = system: corn (Zea mays); experiment: as above; conditions: Postemergence
How it was run: as §1

[5] = system: ryegrass, Italian (Italian ryegrass, Lolium multiflorum); experiment: as above
How it was run: as §1

[6] = system: foxtail, giant (giant foxtail, Setaria faberii); experiment: as above
How it was run: as §1

[7] = system: pigweed (Amaranthus retroflexus); experiment: as above
How it was run: as §1

[8] = system: kochia (Kochia scoparia); experiment: as above
How it was run: as §1

[9] = system: nutsedge, yellow (yellow nutsedge, Cyperus esculentus); experiment: Test C greenhouse herbicide test, pre- and postemergence
How it was run: (§2)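 Two application timings: at sowing into a soil/sand blend, and on 2–18 cm seedlings in peat-vermiculite potting mix. A non-phytotoxic, surfactant-containing solvent carried the compounds. Plants were compared with controls and rated visually on 0–100 after 13–15 d.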

[10] = system: ryegrass, Italian (Italian ryegrass, Lolium multiflorum); experiment: as above
How it was run: as §2

[11] = system: lambsquarters (Chenopodium album); experiment: as above
How it was run: as §2

[12] = Postemergence, 125 g ai/ha, 0 to 100 scale where 0 is no effect and 100 is complete control
[13] = Postemergence, 500 g ai/ha, visual rating after approx. 10 d, 0 to 100 scale (0 no effect, 100 complete control)
[14] = Preemergence, 125 g ai/ha, 0 to 100 scale where 0 is no effect and 100 is complete control
[15] = Preemergence, 500 g ai/ha, 0 to 100 scale where 0 is no effect and 100 is complete control
[16] = 125 g ai/ha, 0 to 100 scale where 0 is no effect and 100 is complete control
[17] = 500 g ai/ha, visual rating after approx. 10 d, 0 to 100 scale (0 no effect, 100 complete control)
[18] = Postemergence, 500 g ai/ha, 0 to 100 scale, 0 is no effect, 100 is complete control
[19] = Postemergence, 125 g ai/ha, scale 0 to 100, 0 is no effect, 100 is complete control
[20] = Postemergence, 250 g ai/ha, scale 0 to 100, 0 no effect, 100 complete control, 13 to 15 d
[21] = postemergence, 62 g ai/ha, scale 0 to 100, 0 no effect, 100 complete control
[22] = Postemergence, 31 g ai/ha, scale 0 to 100 (0 no effect, 100 complete control)
[23] = Preemergence, 31 g ai/ha, scale 0 to 100, 0 is no effect, 100 is complete control
[24] = Preemergence, 62 g ai/ha, scale 0 to 100, 0 is no effect, 100 is complete control
[25] = Preemergence, 125 g ai/ha, scale 0 to 100, 0 is no effect, 100 is complete control
[26] = Preemergence, 250 g ai/ha, scale 0 to 100 (0 no effect, 100 complete control)

CC(=O)Oc1c(C#N)nn(C)c(=O)c1-c1c(C)ccc2ccccc12 [Compound 98]
Plant response rating, Ragweed [1, 12]: 100 | Plant response rating, Ragweed [1, 13]: 100 | Ragweed plant response rating [1, 14]: 60 | Plant response rating, Ragweed [1, 15]: 90 | Plant response rating, Wheat [2, 16]: 30 | Plant response rating, Wheat [2, 17]: 30 | Plant response rating, Barnyardgrass [3, 12]: 90 | Barnyardgrass plant response rating [3, 18]: 90 | Barnyardgrass plant response rating [3, 14]: 40 | Plant response rating, Barnyardgrass [3, 15]: 100 | Plant response rating, Corn [4, 16]: 20 | Plant response rating, Corn [4, 17]: 20 | Plant response rating, Ryegrass, Italian [5, 12]: 90 | Plant response rating, Ryegrass, Italian [5, 13]: 100 | Ryegrass, Italian plant response rating [5, 14]: 20 | Plant response rating, Ryegrass, Italian [5, 15]: 90 | Plant response rating, Foxtail, Giant [6, 12]: 90 | Plant response rating, Foxtail, Giant [6, 13]: 100 | Foxtail, Giant plant response rating [6, 14]: 90 | Plant response rating, Foxtail, Giant [6, 15]: 100 | Plant response rating, Pigweed [7, 12]: 100 | Plant response rating, Pigweed [7, 13]: 100 | Pigweed plant response rating [7, 14]: 100 | Plant response rating, Pigweed [7, 15]: 100 | Plant response rating, Kochia [8, 12]: 30 | Plant response rating, Kochia [8, 13]: 60 | Kochia plant response rating [8, 14]: 20 | Plant response rating, Kochia [8, 15]: 40 | Plant response rating, Nutsedge, Yellow [9, 19]: 50 | Plant response rating, Nutsedge, Yellow [9, 20]: 60 | Nutsedge, Yellow plant response rating [9, 21]: 15 | Plant response rating, Ryegrass, Italian [10, 19]: 65 | Plant response rating, Ryegrass, Italian [10, 20]: 85 | Ryegrass, Italian plant response rating [10, 21]: 45 | Plant response rating, Lambsquarters [11, 19]: 100 | Plant response rating, Lambsquarters [11, 20]: 100 | Lambsquarters plant response rating [11, 21]: 100

COc1nn(C)c(=O)c(-c2c(C)sc3ccc(Cl)cc23)c1O [Compound 100]
Plant response rating, Ragweed [1, 12]: 90 | Plant response rating, Ragweed [1, 13]: 90 | Ragweed plant response rating [1, 14]: 40 | Plant response rating, Ragweed [1, 15]: 80 | Plant response rating, Wheat [2, 16]: 0 | Plant response rating, Wheat [2, 17]: 20 | Plant response rating, Barnyardgrass [3, 12]: 30 | Barnyardgrass plant response rating [3, 18]: 30 | Barnyardgrass plant response rating [3, 14]: 20 | Plant response rating, Barnyardgrass [3, 15]: 20 | Plant response rating, Corn [4, 16]: 0 | Plant response rating, Corn [4, 17]: 20 | Plant response rating, Ryegrass, Italian [5, 12]: 90 | Plant response rating, Ryegrass, Italian [5, 13]: 100 | Ryegrass, Italian plant response rating [5, 14]: 90 | Plant response rating, Ryegrass, Italian [5, 15]: 100 | Plant response rating, Foxtail, Giant [6, 12]: 80 | Plant response rating, Foxtail, Giant [6, 13]: 80 | Foxtail, Giant plant response rating [6, 14]: 70 | Plant response rating, Foxtail, Giant [6, 15]: 90 | Plant response rating, Pigweed [7, 12]: 80 | Plant response rating, Pigweed [7, 13]: 90 | Pigweed plant response rating [7, 14]: 100 | Plant response rating, Pigweed [7, 15]: 100 | Plant response rating, Kochia [8, 12]: 70 | Plant response rating, Kochia [8, 13]: 100 | Kochia plant response rating [8, 14]: 30 | Plant response rating, Kochia [8, 15]: 70 | Plant response rating, Nutsedge, Yellow [9, 19]: 20 | Plant response rating, Nutsedge, Yellow [9, 20]: 50 | Nutsedge, Yellow plant response rating [9, 21]: 25 | Plant response rating, Ryegrass, Italian [10, 19]: 90 | Plant response rating, Ryegrass, Italian [10, 20]: 95 | Ryegrass, Italian plant response rating [10, 21]: 90 | Plant response rating, Lambsquarters [11, 19]: 98 | Plant response rating, Lambsquarters [11, 20]: 98 | Lambsquarters plant response rating [11, 21]: 90

Cc1nn(C)c(=O)c(-c2c(C)sc3ccc(Cl)cc23)c1O [Compound 104]
Plant response rating, Ragweed [1, 12]: 100 | Plant response rating, Ragweed [1, 13]: 100 | Ragweed plant response rating [1, 14]: 90 | Plant response rating, Ragweed [1, 15]: 100 | Plant response rating, Wheat [2, 16]: 20 | Plant response rating, Wheat [2, 17]: 20 | Plant response rating, Barnyardgrass [3, 12]: 70 | Barnyardgrass plant response rating [3, 18]: 100 | Barnyardgrass plant response rating [3, 14]: 80 | Plant response rating, Barnyardgrass [3, 15]: 100 | Plant response rating, Corn [4, 16]: 0 | Plant response rating, Corn [4, 17]: 20 | Plant response rating, Ryegrass, Italian [5, 12]: 100 | Plant response rating, Ryegrass, Italian [5, 13]: 100 | Ryegrass, Italian plant response rating [5, 14]: 100 | Plant response rating, Ryegrass, Italian [5, 15]: 100 | Plant response rating, Foxtail, Giant [6, 12]: 80 | Plant response rating, Foxtail, Giant [6, 13]: 100 | Foxtail, Giant plant response rating [6, 14]: 70 | Plant response rating, Foxtail, Giant [6, 15]: 100 | Plant response rating, Pigweed [7, 12]: 90 | Plant response rating, Pigweed [7, 13]: 90 | Pigweed plant response rating [7, 14]: 100 | Plant response rating, Pigweed [7, 15]: 100 | Plant response rating, Kochia [8, 12]: 90 | Plant response rating, Kochia [8, 13]: 100 | Kochia plant response rating [8, 14]: 100 | Plant response rating, Kochia [8, 15]: 100 | Plant response rating, Nutsedge, Yellow [9, 22]: 55 | Plant response rating, Nutsedge, Yellow [9, 19]: 60 | Plant response rating, Nutsedge, Yellow [9, 20]: 75 | Plant response rating, Nutsedge, Yellow [9, 23]: 30 | Plant response rating, Nutsedge, Yellow [9, 24]: 45 | Plant response rating, Nutsedge, Yellow [9, 25]: 75 | Nutsedge, Yellow plant response rating [9, 26]: 85 | Plant response rating, Ryegrass, Italian [10, 22]: 90 | Plant response rating, Ryegrass, Italian [10, 19]: 90 | Plant response rating, Ryegrass, Italian [10, 20]: 90 | Plant response rating, Ryegrass, Italian [10, 23]: 55 | Plant response rating, Ryegrass, Italian [10, 24]: 85 | Plant response rating, Ryegrass, Italian [10, 25]: 90 | Ryegrass, Italian plant response rating [10, 26]: 95 | Plant response rating, Lambsquarters [11, 22]: 90 | Plant response rating, Lambsquarters [11, 19]: 100 | Plant response rating, Lambsquarters [11, 20]: 100 | Plant response rating, Lambsquarters [11, 23]: 85 | Plant response rating, Lambsquarters [11, 24]: 85 | Plant response rating, Lambsquarters [11, 25]: 95 | Lambsquarters plant response rating [11, 26]: 95
